Test results reported in patent publication US12714721B2, “Methods of treatment of a cytokine storm” (Loma Linda University Health, priority 2020, dated 2026).
“Also recorded” adds a separate entry of the source.

Legend:
Type in all cases: in vivo, mouse
kidney = experiment: Renal histology (CD31 and α-SMA staining, PAS staining, tubular injury score); conditions: for PECAM (CD-31) staining: renal sections (FIGS. 4A-4E); for α-SMA staining: renal sections (FIGS. 4F-4J)
Description: (§1) Experimental Design for IGF-1 and BTP-2 studies—The animal experiments involved B6 mice between 5-8 weeks of age. Most experiments involved five groups of animals: (1) healthy, (2) LPS untreated (LPS-No Tx), (3) IGF-I in vivo gene therapy one day before LPS injection (LPS+IGF-1), (4) BTP-2 16 mg/kg i.p. at the start of the study and the (5) combined therapy with IGF-I and BTP-2 (LPS-IGF-1+BTP-2). For the survival experiment, a lethal dose of LPS (25 mg/kg) was used and all of the untreated animals died by 72 hours. In the other experiments, a sublethal dose of LPS (20 mg/kg) was used.
(§2) LPS induced sepsis and subsequent AKI—Female C57BL/6 mice received a sublethal or lethal dose of LPS from E. coli (0127: B8 strain, Sigma Aldrich, St. Louis, MO, USA) in a concentration of 20 or 25 mg/kg body weight administrated in sterile PBS by intraperitoneal injection.
(§3) Treatment—In a preventive therapeutic strategy, some of the mice received an intramuscular injection of Lenti-IGF-1 24 hours before LPS injection; whereas, the calcium signaling blocker BTP-2 (16 mg/kg, Cayman Chemical) was administrated 1 hour before LPS injection. Some of the animals received a combination of Lenti-IGF-1 and BTP-2. Control group mice were injected with an equal volume of PBS.
Renal Histology—After sacrificing the mice, one part of the kidney was immediately cut, fixed in a 10% neutral buffered formalin solution, embedded in paraffin, and used for histopathological examination. 10-micrometer-thick sections were cut, deparaffinized, and hydrated. All renal serial sections were incubated at 4° C. overnight with one of two antibodies; rabbit polyclonal antibody against PECAM (CD31) (Santa Cruz, MA) or rabbit polyclonal antibody against α-SMA (Abcam, MA). After washing with TBST, biotinylated goat anti-rabbit IgG (1:200, Vector Labs, Burlingame, CA) were applied to the sections for 30 min at room temperature. Sections then were incubated with Streptavidin-HRP (Vector Labs, Burlingame, CA) for 30 min at room temperature. Diaminobenzidine (DAB; Vector Labs, Burlingame, CA) was used as the chromogen and hematoxylin as the counterstain. One part of the kidney was stained with periodic acid Schiff (PAS) stain. The PAS stained sections were examined for renal morphology in an automated fashion by quantification of a glycogen specific color in the kidney tissue using ImageJ (National Institutes of Health, Bethesda, MD, USA). A minimum of 10 fields for each kidney slide were examined and scored for pathological injury. […] The average histological score for each sample was calculated. The images were captured with an Olympus BX51 microscope, 40× magnification. (Olympus, Center Valley, PA).

lung = experiment: Lung immunocytochemistry (CD31, α-SMA); conditions: lung sections (FIG. 14A)
Description: (§4) Acute Lung Injury Induced by LPS—Female C57BL/6 mice received a sublethal or lethal dose of LPS from Escherichia coli (0127: B8 strain, Sigma Aldrich, St. Louis, MO, USA). LPS in sterile PBS was administered intraperitoneally at 20- or 25-mg/kg body weight.
(§5) Treatment for Lung Studies-Lenti-IGF-I was administered intramuscularly 24 h before LPS injection. The TRP and ORAI calcium channel blocker BTP-2 (YM-58483 16 mg/kg, Cayman Chemical, Ann Arbor, MI, USA) was given IP 1 h before LPS injection. Some of the animals received a combination of lenti-IGF-I and BTP-2. Mice in control groups were injected with an equal volume of PBS.
Lung Immunocytochemistry—After the mice were sacrificed, one part of the lung was immediately cut, fixed in a 10% neutral-buffered formalin solution, embedded in paraffin, and used for histopathological examination. Ten-micrometer-thick sections were cut, deparaffinized, and hydrated. All lung serial sections were incubated at 4° C. overnight with one of two antibodies: rabbit polyclonal antibody against PECAM (CD31) (Santa Cruz Biotechnology, Dallas, TX, USA) or rabbit polyclonal antibody against α-SMA (Abcam, Cambridge, MA, USA). After washing, biotinylated goat anti-rabbit IgG (1:200, Vector Labs, Burlingame, CA, USA) were applied to the sections for 30 min at room temperature. […]

whole kidney tissue = experiment: Measurements of mRNA expression in the kidney (real-time PCR), LPS-induced AKI; conditions: for Orai1 gene expression: 7 days after LPS 20 mg/kg (FIG. 2E); for NGAL gene expression: 7 days after LPS (FIG. 6C); for proinflammatory cytokines gene expression (IL-1b, IL-17, IL-6, TNF-α, IL-18): 7 days after LPS (FIGS. 3A-3E)
Description: as §1, §2, §3
Measurements of mRNA Expression in the Kidney—For the measurement of the mRNA expressions of whole kidney tissue, we performed real-time PCR. The relative amount of mRNA was calculated using the comparative Ct(ΔΔCt) method. All specific amplicons were normalized against GAPDH.

whole lung tissues = experiment: Measurements of mRNA expression in the lungs (RT-qPCR), acute lung injury induced by LPS; conditions: for CD31 gene expression: lungs (FIG. 12A); for VEGF gene expression: lungs (FIG. 12B); for α-SMA gene expression: lungs (FIG. 12C); for TRPC3 gene expression: day 7 (FIG. 10B); for TRPC6 gene expression: day 7 (FIG. 10C); for Orai1 gene expression: day 7 (FIG. 10D); for NGAL expression: day 7 (FIG. 15A); for SP-D expression: day 7 (FIG. 15B); for caspase 3 expression: day 7 (FIG. 15C); for proinflammatory cytokines gene expression (IL-1, IL-6, IL-17, TNF-α, IFN-γ): day 7 (FIGS. 11A-11E); for TLR-4 gene expression: seven days after LPS (FIG. 10A)
Description: as §4, §5
Measurements of mRNA Expression in the Lungs—For the measurement of the mRNA expressions of the whole lung tissues, RT-qPCR was performed. Lung tissues were snap-frozen in liquid nitrogen. According to the manufacturer's instructions, total RNA was isolated using the RNeasy Micro Kit® (Qiagen, Valencia, CA, USA). First-strand cDNA was synthesized using the SuperScript® III Reverse Transcriptase (Life Technologies, Grand Island, NY, USA). Quantitative RT-qPCR was performed and analyzed in an Applied Biosystems 7900HT Real-Time PCR machine (Applied Biosystems, Foster City, CA). The PCR condition was 10 min at 95° C. followed by 40 cycles of 10 s at 95° C. and 15 s at 60° C. The relative amount of mRNA was calculated using the comparative Ct (DDCt) method. All specific amplicons were normalized against GAPDH. Table 2 (SEQ ID Nos:1-36) provides for a list of the primers.

[1] = tested on: LPS induced sepsis and subsequent AKI; experiment: Renal function assessment: serum creatinine in LPS induced AKI
Description: as §1, §2, §3
[…] Serum creatinine (CREA) were detected by Creatinine Assay Kit (Cayman Chemicals).

[2] = at 48 hours after LPS (FIG. 6A)

## Cc1nnsc1C(=O)Nc1ccc(-n2nc(C(F)(F)F)cc2C(F)(F)F)cc1 [BTP-2, 3,5-bis(trifluoromethyl)pyrazole derivative]
kidney
  PECAM (CD-31) staining: improved
  α-SMA staining: improved
lung
  immunocytochemical evaluation of CD31 (% of the area of CD31 staining): significantly improved
Whole kidney tissue
  Orai1 gene expression: decreased Orai1 expression to normal; also recorded: marked decrease
  NGAL gene expression: improved
  proinflammatory cytokines gene expression (IL-1b, IL-17, IL-6, TNF-α, IL-18): decreased
Whole kidney tissue; 7 days after LPS (FIG. 2C)
  Nf-kB gene expression: decreased
Whole kidney tissue; 7 days after LPS (FIG. 5C)
  CD31 gene expression: increased
Whole lung tissues
  CD31 gene expression: corrected
  VEGF gene expression: markedly increased the VEGF expression
  α-SMA gene expression: completely corrected
Whole lung tissues; lungs, day 7
  IFN-γ expression: decreased; also recorded: corrected
  IL-17 expression: markedly decreased
  TNF-α expression: marked decreases; also recorded: decreased
Whole lung tissues; lungs
  TRPC3 gene expression: decreased; also recorded: normalized
  TRPC6 gene expression: decreased; also recorded: normalized
  Orai1 gene expression: significant decrease; also recorded: normalized
  NGAL expression: significantly reduced the elevated NGAL expression almost to normal
  SP-D expression: normalized
  caspase 3 expression: corrected the elevated caspase 3 expression
  proinflammatory cytokines gene expression (IL-1, IL-6, IL-17, TNF-α, IFN-γ): decreased the gene expression most of the proinflammatory cytokines to normal; also recorded: remarkably suppressive
  TLR-4 gene expression: decreased the TLR-4 gene expression to the normal level
Whole lung tissues; lungs, day 7 (FIG. 10E)
  calcineurin gene expression: decreased; also recorded: normalized
Whole lung tissues; lungs, day 7 (FIG. 10F)
  Nfat gene expression: decreased; also recorded: normalized
[1]; [2]
  serum creatinine: normalized

## IGF-I: Insulin-like Growth Factor, delivered by a lentiviral vector engineered to express IGF-I injected into skeletal muscle
kidney
  PECAM (CD-31) staining: improved
  α-SMA staining: improved
lung
  immunocytochemical evaluation of CD31 (% of the area of CD31 staining): significantly improved
Whole kidney tissue
  Orai1 gene expression: decreased Orai1 expression
  NGAL gene expression: improved
  proinflammatory cytokines gene expression (IL-1b, IL-17, IL-6, TNF-α, IL-18): decreased
Whole lung tissues
  CD31 gene expression: corrected
  VEGF gene expression: did not affect the VEGF expression
  α-SMA gene expression: did not indicate such beneficial effects
Whole lung tissues; lungs, day 7
  IFN-γ expression: decreased; also recorded: corrected
  IL-6 expression: markedly decrease
  IL-17 expression: markedly decreased
  TNF-α expression: marked decreases; also recorded: decreased
Whole lung tissues; lungs
  TRPC3 gene expression: decreased; also recorded: significant decrease
  TRPC6 gene expression: decreased; also recorded: significant decrease
  Orai1 gene expression: decreased; also recorded: significant decrease
  NGAL expression: significantly reduced the elevated NGAL expression almost to normal
  SP-D expression: normalized
  caspase 3 expression: corrected the elevated caspase 3 expression
  proinflammatory cytokines gene expression (IL-1, IL-6, IL-17, TNF-α, IFN-γ): decreased the gene expression most of the proinflammatory cytokines to normal; also recorded: remarkably suppressive; also recorded: as effective as BTP-2
  TLR-4 gene expression: decreased the TLR-4 gene expression to the normal level
[1]; LPS i.p. day 0, measured 7 days later, IGF-I gene therapy one day prior to LPS (FIG. 1B)
  serum creatinine: normalized
[1]; [2]
  serum creatinine: improved
